According to ChEMBL document CHEMBL3232940, “TNF-α inhibition elicited by mansoins A and B, heterotrimeric flavonoids isolated from Mansoa hirsuta” (J Nat Prod, 2014):

Test: Antiinflammatory activity in human THP1 cells assessed as inhibition of LPS-induced TNF-alpha production preincubated for 3 hrs followed by LPS-challenge measured after overnight incubation by sandwich ELISA
Format: functional, cell-based
Conditions: THP-1

An IC50 of 20 µM was found for `O=C1C[C@@H](c2ccc(O)c(O)c2)Oc2c1c(O)c([C@@H](CCc1ccc(O)cc1)c1ccc(O)cc1O[C@@H]1O[C@H](CO)[C@@H](O)[C@H](O)[C@H]1O)c(O)c2[C@@H](CCc1ccc(O)cc1)c1ccc(O)cc1O[C@@H]1O[C@H](CO)[C@@H](O)[C@H](O)[C@H]1O` in this work.

An IC50 of 48.1 µM was found for `O=C1C[C@@H](c2ccc(O)c(O[C@@H]3O[C@H](CO)[C@@H](O)[C@H](O)[C@H]3O)c2)Oc2c1c(O)c([C@@H](CCc1ccc(O)cc1)c1ccc(O)cc1O[C@@H]1O[C@H](CO)[C@@H](O)[C@H](O)[C@H]1O)c(O)c2[C@@H](CCc1ccc(O)cc1)c1ccc(O)cc1O[C@@H]1O[C@H](CO)[C@@H](O)[C@H](O)[C@H]1O` in this work.
